Results: ChEMBL document CHEMBL4011620, “Design and Discovery of N-(2-Methyl-5'-morpholino-6'-((tetrahydro-2H-pyran-4-yl)oxy)-[3,3'-bipyridin]-5-yl)-3-(trifluoromethyl)benzamide (RAF709): A Potent, Selective, and Efficacious RAF Inhibitor Targeting RAS Mutant Cancers” (J Med Chem, 2017)
≈ marks a conversion by molar mass, not a printed value.

How the values were obtained:
[1] = Solubility of compound at pH 6.8 by shake-flask assay; settings: buffer
Calu-6 = assay: Antiproliferative activity against human Calu6 cells harboring KRAS Q61K mutant assessed as reduction cell viability after 72 hrs by CellTiter-Glo assay; format: functional, cell-based; settings: Calu-6, 72 h
[2] = Apparent permeability across basolateral to apical side in human Caco2 cells at pH 7.4 by LC/MS/MS analysis; settings: Caco-2, pH 7.4
[3] = Apparent permeability across apical to basolateral side in human Caco2 cells at pH 7.4 by LC/MS/MS analysis; settings: Caco-2, pH 7.4
[4] = Intrinsic clearance in human liver microsomes; format: ADME, microsome; settings: read-out: CLH
[5] = Intrinsic clearance in rat liver microsomes; format: ADME, microsome; settings: read-out: CLH
[6] = molecular target: T1, RAF proto-oncogene serine/threonine-protein kinase (Homo sapiens, UniProt P04049); assay: Inhibition CRAF in human Calu6 cells assessed as decrease in MEK phosphorylation after 2 hrs by HTRF method; format: cell-based
[7] = molecular target: RAF proto-oncogene serine/threonine-protein kinase (Homo sapiens, UniProt P04049, Y340E/Y341E); assay: Inhibition of CRAF Y340E/Y341E mutant (unknown origin) using human MEK1 K97R mutant as substrate pretreated for 30 mins followed by substrate addition measured after 40 mins by alphascreen assay
[8] = molecular target: T1, RAF proto-oncogene serine/threonine-protein kinase; assay: Activation of CRAF in human Calu6 cells assessed as increase in MEK phosphorylation at 3 uM after 2 hrs by FRET assay; format: cell-based
[9] = test system: Serine/threonine-protein kinase B-raf (Homo sapiens), P15056 [V600E]; assay: Binding affinity to human BRAF V600E mutant (429 to 741 residues) expressed in mammalian expression system at 1 uM by kinome scan assay relative to control
[10] = molecular target: Serine/threonine-protein kinase B-raf (Homo sapiens, UniProt P15056); assay: Binding affinity to human BRAF (429 to 741 residues) expressed in mammalian expression system at 1 uM by kinome scan assay relative to control
[11] = Oral bioavailability in Sprague-Dawley rat at 3 mg/kg; format: ADME, organism-based; settings: in vivo
[12] = Clearance in Sprague-Dawley rat 1 mg/kg, iv or 3 mg/kg, po; format: ADME, organism-based; settings: in vivo
[13] = AUC in Sprague-Dawley rat at 3 mg/kg, po; format: ADME, organism-based; settings: in vivo
[14] = Cmax in Sprague-Dawley rat at 3 mg/kg, po; format: ADME, organism-based; set-up: dose 3 mg/kg, route oral; settings: in vivo
[15] = molecular target: Platelet-derived growth factor receptor alpha (Homo sapiens) (UniProt P16234); assay: Binding affinity to human PDGFRalpha (330 to 640 residues) expressed in mammalian expression system at 1 uM by kinome scan assay relative to control
Sequence of Platelet-derived growth factor receptor alpha (Homo sapiens) (P16234 whole entry, the tested form may be a part): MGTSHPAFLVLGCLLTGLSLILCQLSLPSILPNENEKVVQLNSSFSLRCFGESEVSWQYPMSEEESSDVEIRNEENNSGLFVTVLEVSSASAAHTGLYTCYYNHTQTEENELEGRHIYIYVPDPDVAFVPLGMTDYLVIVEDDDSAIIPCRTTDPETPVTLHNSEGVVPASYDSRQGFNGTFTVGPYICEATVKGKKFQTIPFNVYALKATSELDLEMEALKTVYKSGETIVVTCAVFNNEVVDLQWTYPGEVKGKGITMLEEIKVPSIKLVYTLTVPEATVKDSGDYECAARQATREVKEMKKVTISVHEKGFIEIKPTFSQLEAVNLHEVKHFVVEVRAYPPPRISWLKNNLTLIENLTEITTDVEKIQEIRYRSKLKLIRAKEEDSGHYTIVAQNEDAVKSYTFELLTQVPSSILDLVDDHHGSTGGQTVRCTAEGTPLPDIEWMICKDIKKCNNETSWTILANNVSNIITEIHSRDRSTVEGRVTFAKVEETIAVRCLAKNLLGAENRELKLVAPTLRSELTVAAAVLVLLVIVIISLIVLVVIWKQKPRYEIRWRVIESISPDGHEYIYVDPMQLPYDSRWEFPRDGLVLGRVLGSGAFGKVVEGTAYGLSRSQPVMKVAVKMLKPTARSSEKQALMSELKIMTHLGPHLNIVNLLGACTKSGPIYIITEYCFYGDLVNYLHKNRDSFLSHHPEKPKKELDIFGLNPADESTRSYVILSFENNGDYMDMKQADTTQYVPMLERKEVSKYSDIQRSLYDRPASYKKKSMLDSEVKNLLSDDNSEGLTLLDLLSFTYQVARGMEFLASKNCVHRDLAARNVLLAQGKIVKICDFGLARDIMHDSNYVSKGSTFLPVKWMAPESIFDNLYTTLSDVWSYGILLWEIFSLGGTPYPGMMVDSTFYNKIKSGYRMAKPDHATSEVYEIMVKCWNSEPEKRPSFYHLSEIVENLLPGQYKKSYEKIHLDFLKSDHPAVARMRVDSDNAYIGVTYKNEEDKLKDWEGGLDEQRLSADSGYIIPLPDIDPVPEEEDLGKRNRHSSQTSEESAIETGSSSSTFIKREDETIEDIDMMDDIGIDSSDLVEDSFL

T1 sequence (P04049 whole entry): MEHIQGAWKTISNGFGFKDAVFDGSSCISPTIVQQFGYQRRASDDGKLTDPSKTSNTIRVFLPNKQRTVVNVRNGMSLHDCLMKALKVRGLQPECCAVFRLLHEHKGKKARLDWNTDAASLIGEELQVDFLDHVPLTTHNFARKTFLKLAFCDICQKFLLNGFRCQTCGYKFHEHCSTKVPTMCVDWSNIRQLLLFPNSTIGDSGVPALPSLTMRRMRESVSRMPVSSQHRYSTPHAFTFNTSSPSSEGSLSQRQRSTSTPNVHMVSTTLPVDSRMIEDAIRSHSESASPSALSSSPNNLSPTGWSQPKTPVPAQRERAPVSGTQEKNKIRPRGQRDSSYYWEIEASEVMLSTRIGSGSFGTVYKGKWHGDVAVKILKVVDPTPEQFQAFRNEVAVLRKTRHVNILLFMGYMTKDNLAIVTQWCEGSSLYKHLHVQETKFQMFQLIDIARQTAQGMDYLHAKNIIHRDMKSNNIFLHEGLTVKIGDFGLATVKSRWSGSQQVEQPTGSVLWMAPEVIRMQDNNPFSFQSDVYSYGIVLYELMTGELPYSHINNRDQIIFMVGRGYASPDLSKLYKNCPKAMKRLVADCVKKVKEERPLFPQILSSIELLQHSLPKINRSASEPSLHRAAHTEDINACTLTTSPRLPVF
Sequence of RAF proto-oncogene serine/threonine-protein kinase (Homo sapiens, UniProt P04049, Y340E/Y341E) (P04049 whole entry Y340E/Y341E): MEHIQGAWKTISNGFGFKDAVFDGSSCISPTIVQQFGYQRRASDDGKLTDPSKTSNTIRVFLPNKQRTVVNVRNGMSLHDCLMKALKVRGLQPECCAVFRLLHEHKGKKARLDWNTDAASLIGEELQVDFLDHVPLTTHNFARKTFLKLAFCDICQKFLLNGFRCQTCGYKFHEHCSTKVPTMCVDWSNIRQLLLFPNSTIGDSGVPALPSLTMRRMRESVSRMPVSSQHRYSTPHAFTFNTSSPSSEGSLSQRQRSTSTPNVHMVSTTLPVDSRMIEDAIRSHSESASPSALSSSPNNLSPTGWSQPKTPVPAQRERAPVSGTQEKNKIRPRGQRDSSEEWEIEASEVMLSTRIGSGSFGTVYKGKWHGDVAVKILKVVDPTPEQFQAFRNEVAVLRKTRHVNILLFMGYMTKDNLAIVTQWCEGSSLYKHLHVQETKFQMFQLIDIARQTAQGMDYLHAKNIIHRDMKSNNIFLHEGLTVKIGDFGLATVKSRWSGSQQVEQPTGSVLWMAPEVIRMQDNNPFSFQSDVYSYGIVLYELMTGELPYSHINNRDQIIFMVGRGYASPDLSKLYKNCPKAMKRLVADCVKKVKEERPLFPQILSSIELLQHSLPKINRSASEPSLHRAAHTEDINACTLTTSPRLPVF
Sequence of Serine/threonine-protein kinase B-raf (Homo sapiens), P15056 [V600E] (P15056 whole entry V600E, the tested form may be a part): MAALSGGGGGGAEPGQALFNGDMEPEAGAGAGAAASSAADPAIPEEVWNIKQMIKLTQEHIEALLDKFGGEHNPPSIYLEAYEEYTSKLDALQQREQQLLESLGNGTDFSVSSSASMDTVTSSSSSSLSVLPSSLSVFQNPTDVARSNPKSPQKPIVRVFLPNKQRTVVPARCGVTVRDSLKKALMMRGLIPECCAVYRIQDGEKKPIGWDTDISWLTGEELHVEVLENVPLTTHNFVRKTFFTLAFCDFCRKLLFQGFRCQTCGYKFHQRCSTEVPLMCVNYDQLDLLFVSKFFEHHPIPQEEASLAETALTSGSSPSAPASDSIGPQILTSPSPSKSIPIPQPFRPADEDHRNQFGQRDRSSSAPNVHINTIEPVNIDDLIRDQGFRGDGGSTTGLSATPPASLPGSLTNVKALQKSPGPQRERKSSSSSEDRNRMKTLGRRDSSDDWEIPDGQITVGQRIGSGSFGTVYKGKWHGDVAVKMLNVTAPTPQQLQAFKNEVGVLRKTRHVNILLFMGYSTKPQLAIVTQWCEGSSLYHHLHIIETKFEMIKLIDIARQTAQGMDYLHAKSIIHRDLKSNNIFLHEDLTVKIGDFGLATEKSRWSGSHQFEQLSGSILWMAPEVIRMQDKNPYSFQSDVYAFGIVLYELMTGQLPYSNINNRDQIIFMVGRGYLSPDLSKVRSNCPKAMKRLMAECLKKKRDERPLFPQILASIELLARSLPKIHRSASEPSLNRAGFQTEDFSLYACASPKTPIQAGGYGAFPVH
Sequence of Serine/threonine-protein kinase B-raf (P15056 whole entry, the tested form may be a part): as the sequence (P15056 whole entry V600E, the tested form may be a part) above, with E600V counted along it

SMILES | solubility thermodynamic [1] [µM] | EC50 (Calu-6) [nM] | Papp B→A [2] [×10⁻⁶ cm/s] | Papp A→B [3] [×10⁻⁶ cm/s] | microsomal CLint [4] [µL/min/mg] | EC50 [6] [nM] | further results
Cc1ncc(NC(=O)c2cccc(C(F)(F)F)c2)cc1-c1cnc(OCCO)c(N2CCOCC2)c1 | 24 (≈ 12.1 µg/mL) | 2500 | 45 | 5 |  |  | 
Cc1ccc(NC(=O)c2cccc(C(F)(F)F)c2)cc1-c1cc(N2CCOCC2)ncn1 | 16 (≈ 7.08 µg/mL) | 5200 | 38 | 19 | 43 |  | microsomal CLint [5]: 79 µL/min/mg
COc1ncc(-c2cc(NC(=O)c3cccc(C(F)(F)F)c3)cnc2C)cc1N1CCOCC1 | < 2 | 1600 | 14 | 16 |  |  | 
Cc1ncc(NC(=O)c2cccc(C(F)(F)F)c2)cc1-c1cnc(OC(C)C)c(N2CCOCC2)c1 | < 2 | 2900 |  |  |  |  | 
Cc1ccc(NC(=O)c2cccc(C(F)(F)F)c2)cc1-c1cn(C)c(=O)c(N2CCOCC2)n1 | 190 (≈ 89.8 µg/mL) | 4100 | 16 | 21 | 110 | 200 | 
Cc1ccc(C(=O)Nc2cccc(C(F)(F)F)c2)cc1-c1cc(N2CCOCC2)ncn1 |  | 3100 |  |  |  | 700 | IC50 [7]: 2 nM
Cc1ccc(NC(=O)c2cccc(C(F)(F)F)c2)cc1-c1ccnc(N2CCOCC2)c1 | < 2 | 700 | 1.8 |  |  | 200 | 
Cc1ncc(NC(=O)c2cccc(C(F)(F)F)c2)cc1-c1cc(N2CCOCC2)c(=O)n(C)c1 | 20 (≈ 9.45 µg/mL) | 1800 | 43 | 7 | < 7.7 | 460 | 
Cc1ncc(NC(=O)c2ccnc(C(F)(F)F)c2)cc1-c1cc(N2CCOCC2)c(=O)n(C)c1 | 1040 (≈ 492 µg/mL) | > 30000 | 39 | 3 | < 7.7 | 3960 | IC50 [7]: 1 nM
Cc1ccc(C(=O)Nc2cccc(C(C)(C)C)c2)cc1-c1cc(N2CCOCC2)ncn1 | 20 (≈ 8.61 µg/mL) | 6400 | 15 | 15 | 170 | 200 | IC50 [7]: 0.5 nM; microsomal CLint [5]: 210 µL/min/mg
CCCS(=O)(=O)Nc1ccc(F)c(C(=O)c2c[nH]c3ncc(-c4ccc(Cl)cc4)cc23)c1F [VEMURAFENIB] |  |  |  |  |  |  | Activity [8]: Active
Cc1ccc(NC(=O)c2cccc(C(F)(F)F)c2)cc1-c1cc(N2CCOCC2)c(=O)n(C)c1 | 70 (≈ 33 µg/mL) | 500 | 22 | 20 | 51 |  | Activity [9]: > 99%; Activity [10]: > 99%; bioavailability [11]: 22%; clearance [12]: 53 mL/min/kg; AUC [13]: 0.438 µM·h; microsomal CLint [5]: 46 µL/min/mg; Cmax [14]: 150 nM; Activity [15]: 89%
